Measurements as given in PubChem BioAssay (NCI).
Several values for one entry are separate records, joined by “and”; a condition that tells them apart may be missing. Identical values can stand only once.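 Five concentrations, 48 hours, 96-well plates. GI50 marks 50% less growth. TGI denotes the concentration required for complete inhibition of growth.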

Columns and labels:
Experiment in all cases: NCI anticancer screen, dose series, 48 h
TK-10 renal = tested on: TK-10 renal
XF 498 CNS = tested on: XF 498 CNS
ACHN renal = tested on: ACHN renal
HCC-2998 colon = tested on: HCC-2998 colon
SF-295 CNS = tested on: SF-295 CNS
CCRF-CEM leukemia = tested on: CCRF-CEM leukemia
HT29 colon = tested on: HT29 colon
NCI-H460 lung = tested on: NCI-H460 lung
IGROV1 ovarian = tested on: IGROV1 ovarian
RPMI-8226 leukemia = tested on: RPMI-8226 leukemia
SK-MEL-5 melanoma = tested on: SK-MEL-5 melanoma
SF-268 CNS = tested on: SF-268 CNS
HOP-18 NSCLC = tested on: HOP-18 NSCLC
SF-539 CNS = tested on: SF-539 CNS
A498 renal = tested on: A498 renal
MALME-3M melanoma = tested on: MALME-3M melanoma
DMS 114 small cell lung = tested on: DMS 114 small cell lung
NCI-H522 lung = tested on: NCI-H522 lung
KM20L2 colon = tested on: KM20L2 colon
K-562 leukemia = tested on: K-562 leukemia
KM12 colon = tested on: KM12 colon
LXFL 529 NSCLC = tested on: LXFL 529 NSCLC
HOP-92 NSCLC = tested on: HOP-92 NSCLC
SK-MEL-2 melanoma = tested on: SK-MEL-2 melanoma
SR leukemia = tested on: SR leukemia
RXF 393 renal = tested on: RXF 393 renal
HCT-15 colon = tested on: HCT-15 colon
OVCAR-8 ovarian = tested on: OVCAR-8 ovarian
NCI-H23 lung = tested on: NCI-H23 lung
SK-MEL-28 melanoma = tested on: SK-MEL-28 melanoma
A549 NSCLC = tested on: A549 NSCLC
HL-60(TB) leukemia = tested on: HL-60(TB) leukemia
SNB-75 CNS = tested on: SNB-75 CNS
NCI-H226 lung = tested on: NCI-H226 lung
CAKI-1 renal = tested on: CAKI-1 renal
SW-620 colon = tested on: SW-620 colon
UACC-257 melanoma = tested on: UACC-257 melanoma
HOP-62 NSCLC = tested on: HOP-62 NSCLC
M14 melanoma = tested on: M14 melanoma
786-0 renal = tested on: 786-0 renal
MOLT-4 leukemia = tested on: MOLT-4 leukemia
EKVX NSCLC = tested on: EKVX NSCLC
SN12C renal = tested on: SN12C renal
HCT-116 colon = tested on: HCT-116 colon
OVCAR-3 ovarian = tested on: OVCAR-3 ovarian
U251 CNS = tested on: U251 CNS
SNB-19 CNS = tested on: SNB-19 CNS
OVCAR-5 ovarian = tested on: OVCAR-5 ovarian
OVCAR-4 ovarian = tested on: OVCAR-4 ovarian
DLD-1 colon = tested on: DLD-1 colon
COLO 205 colon = tested on: COLO 205 colon
SNB-78 CNS = tested on: SNB-78 CNS
UACC-62 melanoma = tested on: UACC-62 melanoma
SK-OV-3 ovarian = tested on: SK-OV-3 ovarian
UO-31 renal = tested on: UO-31 renal
M19-MEL melanoma = tested on: M19-MEL melanoma
DMS 273 small cell lung = tested on: DMS 273 small cell lung
MDA-MB-435 = tested on: MDA-MB-435
T-47D breast = tested on: T-47D breast
HS 578T breast = tested on: HS 578T breast
MDA-N = tested on: MDA-N
NCI/ADR-RES ovarian = tested on: NCI/ADR-RES ovarian
LOX IMVI melanoma = tested on: LOX IMVI melanoma
MDA-MB-231 breast = tested on: MDA-MB-231 breast
RXF-631 renal = tested on: RXF-631 renal
PC-3 prostate = tested on: PC-3 prostate
MCF7 breast = tested on: MCF7 breast
DU-145 prostate = tested on: DU-145 prostate
BT-549 breast = tested on: BT-549 breast

## CSc1nc(-c2ccc(Cl)cc2)c(C#N)c(=O)n1C1OC(COC(C)=O)C(OC(C)=O)C(OC(C)=O)C1OC(C)=O (stereo not given)
TK-10 renal
  TGI: > 100 µM
XF 498 CNS
  TGI: > 100 µM
ACHN renal
  GI50: 24 µM and > 100 µM
  TGI: > 100 µM
HCC-2998 colon
  TGI: > 100 µM
SF-295 CNS
  GI50: 14.8 µM and > 100 µM
  TGI: 39 µM and > 100 µM
CCRF-CEM leukemia
  GI50: > 7.5 µM and 65.1 µM
  TGI: > 100 µM
HT29 colon
  GI50: 29.3 µM and > 100 µM
  TGI: > 100 µM
NCI-H460 lung
  GI50: 27.3 µM and > 100 µM
  TGI: > 100 µM
IGROV1 ovarian
  TGI: > 100 µM
RPMI-8226 leukemia
  GI50: 34.6 µM and > 100 µM
  TGI: > 100 µM
SK-MEL-5 melanoma
  TGI: > 100 µM
SF-268 CNS
  GI50: 12.4 µM and > 100 µM
  TGI: 55.2 µM and > 100 µM
HOP-18 NSCLC
  TGI: > 100 µM
SF-539 CNS
  GI50: 15.2 µM and > 100 µM
  TGI: 31.6 µM and > 100 µM
A498 renal
  GI50: 17.6 µM and > 100 µM
  TGI: 38.9 µM and > 100 µM
MALME-3M melanoma
  GI50: 30.7 µM and 77.8 µM
  TGI: > 100 µM
DMS 114 small cell lung
  GI50: 24.6 µM and > 100 µM
  TGI: > 100 µM
NCI-H522 lung
  GI50: 12.1 µM and > 100 µM
  TGI: 29.2 µM and > 100 µM
KM20L2 colon
  GI50: 35 µM and > 100 µM
  TGI: > 100 µM
K-562 leukemia
  TGI: > 100 µM
KM12 colon
  TGI: > 100 µM
LXFL 529 NSCLC
  GI50: 26 µM and > 100 µM
  TGI: > 100 µM
HOP-92 NSCLC
  GI50: 10.4 µM and 4.43 µM
  TGI: 32 µM and 82.7 µM
SK-MEL-2 melanoma
  TGI: > 100 µM
SR leukemia
  TGI: > 100 µM
RXF 393 renal
  GI50: 10.6 µM and > 100 µM
  TGI: 25.6 µM and > 100 µM
HCT-15 colon
  TGI: > 100 µM
OVCAR-8 ovarian
  TGI: > 100 µM
NCI-H23 lung
  GI50: 22.2 µM and > 100 µM
  TGI: > 100 µM
SK-MEL-28 melanoma
  GI50: 27.6 µM and > 100 µM
  TGI: > 100 µM
A549 NSCLC
  TGI: > 100 µM
HL-60(TB) leukemia
  TGI: > 100 µM
SNB-75 CNS
  GI50: 14.8 µM and > 100 µM
  TGI: 31.9 µM and > 100 µM
NCI-H226 lung
  TGI: > 100 µM
CAKI-1 renal
  TGI: > 100 µM
SW-620 colon
  TGI: > 100 µM
UACC-257 melanoma
  GI50: 14.5 µM and > 100 µM
  TGI: 38.8 µM and > 100 µM
HOP-62 NSCLC
  GI50: 23.6 µM and > 100 µM
  TGI: 57.1 µM and > 100 µM
M14 melanoma
  GI50: 34.7 µM and 88.9 µM
  TGI: > 100 µM
786-0 renal
  TGI: > 100 µM
MOLT-4 leukemia
  TGI: > 100 µM
EKVX NSCLC
  TGI: > 100 µM
SN12C renal
  TGI: > 100 µM
HCT-116 colon
  GI50: 23.1 µM and > 100 µM
  TGI: > 100 µM
OVCAR-3 ovarian
  TGI: 33.2 µM
U251 CNS
  GI50: 20.6 µM and > 100 µM
  TGI: 71.6 µM and > 100 µM
SNB-19 CNS
  GI50: 13.9 µM and > 100 µM
  TGI: 39.4 µM and > 100 µM
OVCAR-5 ovarian
  GI50: 31.3 µM and > 100 µM
  TGI: > 100 µM
OVCAR-4 ovarian
  GI50: > 100 µM
  TGI: > 100 µM
DLD-1 colon
  TGI: > 100 µM
COLO 205 colon
  TGI: > 100 µM
SNB-78 CNS
  GI50: 12.4 µM and > 100 µM
  TGI: 39.6 µM and > 100 µM
UACC-62 melanoma
  GI50: 30.5 µM and > 100 µM
  TGI: > 100 µM
SK-OV-3 ovarian
  GI50: 25.3 µM and > 100 µM
  TGI: 70.3 µM and > 100 µM
UO-31 renal
  GI50: 10.4 µM and > 100 µM
  TGI: 23.5 µM and > 100 µM
M19-MEL melanoma
  GI50: 34.3 µM and > 100 µM
  TGI: > 100 µM
DMS 273 small cell lung
  TGI: > 100 µM

## COc1cc2c(c(OC)c1OC)-c1ccc(OC)c(=O)cc1C(NC(=O)COc1ccccc1)CC2 (stereo not given)
MDA-MB-435
  TGI: < 0.01 µM
TK-10 renal
  TGI: > 93.7 µM
XF 498 CNS
  TGI: 65.8 µM
ACHN renal
  TGI: > 100 µM
HCC-2998 colon
  TGI: 1.04 µM
SF-295 CNS
  TGI: 0.0874 µM
CCRF-CEM leukemia
  TGI: > 63.4 µM
HT29 colon
  TGI: < 0.146 µM
NCI-H460 lung
  TGI: > 10.6 µM
IGROV1 ovarian
  TGI: > 92.3 µM
RPMI-8226 leukemia
  TGI: 38.3 µM
T-47D breast
  TGI: > 100 µM
SK-MEL-5 melanoma
  TGI: 0.0371 µM
HS 578T breast
  TGI: > 31.6 µM
MDA-N
  TGI: < 0.01 µM
NCI/ADR-RES ovarian
  TGI: 0.4 µM
SF-268 CNS
  TGI: 61.6 µM
HOP-18 NSCLC
  TGI: > 100 µM
SF-539 CNS
  TGI: < 0.01 µM
A498 renal
  TGI: 2.46 µM
MALME-3M melanoma
  TGI: > 100 µM
DMS 114 small cell lung
  TGI: < 0.01 µM
NCI-H522 lung
  TGI: < 0.01 µM
KM20L2 colon
  TGI: < 0.01 µM
K-562 leukemia
  TGI: 60.8 µM
LOX IMVI melanoma
  TGI: > 82.6 µM
KM12 colon
  TGI: < 0.011 µM
LXFL 529 NSCLC
  TGI: > 100 µM
HOP-92 NSCLC
  TGI: 2.91 µM
SK-MEL-2 melanoma
  TGI: > 15.8 µM
SR leukemia
  TGI: 8.93 µM
RXF 393 renal
  TGI: > 71.5 µM
HCT-15 colon
  TGI: > 100 µM
OVCAR-8 ovarian
  TGI: 13.1 µM
MDA-MB-231 breast
  TGI: 1.22 µM
SK-MEL-28 melanoma
  TGI: > 100 µM
RXF-631 renal
  TGI: > 100 µM
A549 NSCLC
  TGI: > 100 µM
PC-3 prostate
  TGI: > 100 µM
SNB-75 CNS
  TGI: 10.5 µM
NCI-H226 lung
  TGI: 0.423 µM
CAKI-1 renal
  TGI: 15.3 µM
MCF7 breast
  TGI: > 49.4 µM
SW-620 colon
  TGI: > 95.2 µM
UACC-257 melanoma
  TGI: > 100 µM
HOP-62 NSCLC
  TGI: > 100 µM
M14 melanoma
  TGI: > 21.5 µM
786-0 renal
  TGI: 93.8 µM
MOLT-4 leukemia
  TGI: 53 µM
DU-145 prostate
  TGI: < 0.01 µM
EKVX NSCLC
  TGI: > 100 µM
SN12C renal
  TGI: > 100 µM
OVCAR-3 ovarian
  TGI: < 0.0355 µM
U251 CNS
  TGI: 13 µM
SNB-19 CNS
  TGI: > 100 µM
OVCAR-5 ovarian
  TGI: > 100 µM
OVCAR-4 ovarian
  TGI: > 84 µM
DLD-1 colon
  TGI: > 100 µM
COLO 205 colon
  TGI: < 0.01 µM
SNB-78 CNS
  TGI: > 100 µM
UACC-62 melanoma
  TGI: > 100 µM
BT-549 breast
  TGI: 5.12 µM
SK-OV-3 ovarian
  TGI: 0.766 µM
UO-31 renal
  TGI: > 100 µM
M19-MEL melanoma
  TGI: > 100 µM
DMS 273 small cell lung
  TGI: > 100 µM
